Laboratory results reported in ChEMBL document CHEMBL5523755, “Design, Synthesis, and Biological Evaluation of 1,4-Dihydropyridine-Indole as a Potential Antidiabetic Agent via GLUT4 Translocation Stimulation” (J Med Chem, 2024).
The source made the active and inactive calls. The calls are words filed in the database; no cut-off is given here.

Columns and labels:
[1] = target: T1, Solute carrier family 2, facilitated glucose transporter member 4 (Rattus norvegicus) (UniProt P19357); assay: Induction of GLUT4 translocation in rat L6-GLUT4myc skeletal muscle cells assessed as translocation to cell surface by measuring fold stimulation at 10 uM measured after 1 hr incubation by antibody-coupled colorimetric assay relative to control; assay type: cell-based; conditions: filed as modulator
T1 sequence (whole entry): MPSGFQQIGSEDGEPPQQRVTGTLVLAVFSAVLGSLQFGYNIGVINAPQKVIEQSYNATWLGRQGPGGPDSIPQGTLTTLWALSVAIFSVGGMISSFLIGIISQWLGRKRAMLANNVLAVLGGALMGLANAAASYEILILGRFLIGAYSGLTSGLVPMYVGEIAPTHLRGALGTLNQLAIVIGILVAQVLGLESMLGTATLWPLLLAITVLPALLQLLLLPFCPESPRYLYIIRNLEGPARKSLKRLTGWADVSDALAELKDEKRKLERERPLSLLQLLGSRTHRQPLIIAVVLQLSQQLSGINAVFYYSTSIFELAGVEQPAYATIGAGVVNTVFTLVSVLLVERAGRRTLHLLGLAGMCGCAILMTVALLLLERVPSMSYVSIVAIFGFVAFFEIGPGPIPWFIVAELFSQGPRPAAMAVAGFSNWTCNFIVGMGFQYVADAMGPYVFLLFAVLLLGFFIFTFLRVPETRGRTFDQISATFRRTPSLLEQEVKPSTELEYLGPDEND

[2] = target: T1, Solute carrier family 2, facilitated glucose transporter member 4 (Rattus norvegicus); assay: Induction of GLUT4 translocation in rat L6-GLUT4myc skeletal muscle cells assessed as translocation to cell surface by measuring fold stimulation measured after 16 hrs incubation by antibody-coupled colorimetric assay relative to control; assay type: cell-based; conditions: filed as modulator, dose 5-25 µM
[3] = target: T2, Beta-galactosidase (Homo sapiens) (UniProt P16278); assay: Inhibition of beta-galactosidase (unknown origin) at 100 uM relative to control
T2 sequence (whole entry): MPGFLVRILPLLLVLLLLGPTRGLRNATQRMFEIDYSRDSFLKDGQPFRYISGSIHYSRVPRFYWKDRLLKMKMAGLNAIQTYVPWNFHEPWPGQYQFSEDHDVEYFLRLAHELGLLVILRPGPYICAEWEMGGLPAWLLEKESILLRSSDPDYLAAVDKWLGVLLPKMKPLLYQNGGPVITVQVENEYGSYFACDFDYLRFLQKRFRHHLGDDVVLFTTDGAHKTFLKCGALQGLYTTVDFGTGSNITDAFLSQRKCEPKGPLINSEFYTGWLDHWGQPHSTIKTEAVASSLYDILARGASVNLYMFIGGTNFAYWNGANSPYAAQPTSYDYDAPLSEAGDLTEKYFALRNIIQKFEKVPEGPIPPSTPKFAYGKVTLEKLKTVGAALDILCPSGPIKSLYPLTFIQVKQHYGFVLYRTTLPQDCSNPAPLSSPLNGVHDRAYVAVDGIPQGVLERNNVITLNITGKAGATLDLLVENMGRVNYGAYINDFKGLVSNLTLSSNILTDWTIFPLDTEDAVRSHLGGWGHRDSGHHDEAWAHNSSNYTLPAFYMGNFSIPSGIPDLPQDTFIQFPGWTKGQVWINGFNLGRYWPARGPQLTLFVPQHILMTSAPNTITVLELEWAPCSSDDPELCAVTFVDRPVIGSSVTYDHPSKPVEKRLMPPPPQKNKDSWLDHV

[4] = target: T1, Solute carrier family 2, facilitated glucose transporter member 4 (Rattus norvegicus); assay: Induction of GLUT4 translocation in rat L6-GLUT4myc skeletal muscle cells assessed as translocation to cell surface by measuring fold stimulation at 500 uM measured after 1 hr incubation by antibody-coupled colorimetric assay relative to control; assay type: cell-based; conditions: filed as modulator
[5] = Cmax in Sprague-Dawley rat at 100 mg/kg, po measured after 48 hrs by LC-MS/MS analysis; assay type: ADME, organism-based; conditions: in vivo
[6] = target: RAC-alpha serine/threonine-protein kinase (Rattus norvegicus) (UniProt P47196); assay: Induction of AKT phosphorylation at Ser 473 in rat L6-GLUT4myc skeletal muscle cells at 10 uM measured after 16 hrs incubation by immunoblotting analysis; assay type: cell-based; conditions: filed as modulator
RAC-alpha serine/threonine-protein kinase (Rattus norvegicus), sequence (P47196 whole entry): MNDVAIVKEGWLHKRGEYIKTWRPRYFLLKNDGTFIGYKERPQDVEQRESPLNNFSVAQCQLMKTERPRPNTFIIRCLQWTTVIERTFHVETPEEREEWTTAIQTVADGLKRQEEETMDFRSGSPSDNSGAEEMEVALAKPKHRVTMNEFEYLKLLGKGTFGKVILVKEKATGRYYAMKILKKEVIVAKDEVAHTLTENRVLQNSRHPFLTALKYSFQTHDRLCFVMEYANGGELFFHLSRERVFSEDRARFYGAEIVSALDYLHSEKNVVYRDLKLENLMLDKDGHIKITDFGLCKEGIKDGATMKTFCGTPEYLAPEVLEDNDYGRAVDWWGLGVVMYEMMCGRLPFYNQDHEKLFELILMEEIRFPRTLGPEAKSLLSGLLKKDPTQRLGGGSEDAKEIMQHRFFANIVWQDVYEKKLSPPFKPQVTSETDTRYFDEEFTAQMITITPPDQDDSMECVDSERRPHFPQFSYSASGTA

[7] = Stability of the compound in simulated gastric fluid (SGF) assessed as compound remaining measured upto 120 mins relative to control; assay type: ADME; conditions: read-out: Stability
[8] = target: T1, Solute carrier family 2, facilitated glucose transporter member 4 (Rattus norvegicus); assay: Induction of insulin-induced GLUT4 translocation in rat L6-GLUT4myc skeletal muscle cells assessed as translocation to cell surface at 10 uM measured after 16 hrs incubation (final 3 hrs under serum starved medium) followed by stimulated with 100 nM insulin for 20 mins by antibody-coupled colorimetric assay; assay type: cell-based
[9] = Apparent volume of distribution in Sprague-Dawley rat at 100 mg/kg, po measured after 48 hrs by LC-MS/MS analysis; assay type: ADME, organism-based; conditions: in vivo
[10] = Tmax in Sprague-Dawley rat at 100 mg/kg, po measured after 48 hrs by LC-MS/MS analysis; assay type: ADME, organism-based; conditions: in vivo
[11] = Elimination half life in Sprague-Dawley rat at 100 mg/kg, po measured after 48 hrs by LC-MS/MS analysis; assay type: ADME, organism-based; conditions: in vivo, read-out: beta t1/2 (converted)
[12] = target: T1, Solute carrier family 2, facilitated glucose transporter member 4 (Rattus norvegicus); assay: Induction of GLUT4 translocation in rat L6-GLUT4myc skeletal muscle cells assessed as translocation to cell surface by measuring fold stimulation at 10 uM measured after 16 hrs incubation in presence of compound c AMPK inhibitor by antibody-coupled colorimetric assay; assay type: cell-based; conditions: filed as modulator
[13] = Stability of the compound in simulated intestinal fluid (SIF) assessed as compound remaining measured upto 120 mins relative to control; assay type: ADME; conditions: read-out: Stability
[14] = AUC in Sprague-Dawley rat at 100 mg/kg, po measured after 48 hrs by LC-MS/MS analysis; assay type: ADME, organism-based; conditions: in vivo
[15] = Stability of the compound in simulated physiological fluid (SPF) assessed as compound remaining measured upto 120 mins relative to control; assay type: ADME; conditions: read-out: Stability
[16] = MRT in Sprague-Dawley rat at 100 mg/kg, po measured after 48 hrs by LC-MS/MS analysis; assay type: ADME, organism-based; conditions: in vivo
[17] = Stability of the compound in rat plasma assessed as compound remaining measured upto 120 mins relative to control; assay type: ADME, cell-free; conditions: read-out: Stability
[18] = target: T1, Solute carrier family 2, facilitated glucose transporter member 4 (Rattus norvegicus); assay: Induction of GLUT4 translocation in rat L6-GLUT4myc skeletal muscle cells assessed as translocation to cell surface by measuring fold stimulation at 10 uM measured after 16 hrs incubation in presence of wortmannin PI3 Kinase inhibitor by antibody-coupled colorimetric assay; assay type: cell-based
[19] = Clearance in Sprague-Dawley rat at 100 mg/kg, po measured after 48 hrs by LC-MS/MS analysis; assay type: ADME, organism-based; conditions: in vivo
L6-GLUT4myc = assay: Induction of GPR40 expression in rat L6-GLUT4myc skeletal muscle cells assessed as increase in mRNA level at 10 uM measured after overnight incubation by RT-PCR analysis; assay type: functional, cell-based; conditions: filed as activator
Rattus norvegicus = assay: Antihyperglycemic activity in STZ-induced Sprague-Dawley rat diabetic model assessed as decrease in blood glucose at 100 mg/kg, po measured upto 300 mins; assay type: functional, organism-based

| Compound | fold change (FC) [1] | also measured |
| --- | --- | --- |
| NCCc1c[nH]c2ccccc12 | 1.08 |  |
| CC(=O)CC(=O)NCCc1c[nH]c2ccccc12 | 1.18 |  |
| CC1=C(C(=O)NCCc2c[nH]c3ccccc23)C(c2ccc(OC(F)(F)F)cc2)C2=C(CC(C)(C)CC2=O)N1 (stereo not drawn) | 2.11 | Activity [2]: Dose-Dependent Effect |
| CC1=C(C(=O)Nc2ccccc2)C(c2ccc(Cl)c(Cl)c2)C2=C(CC(C)(C)CC2=O)N1 (stereo not drawn) | 1.1 |  |
| CC1=C(C(=O)NCCc2c[nH]c3ccccc23)C(c2scnc2C)C2=C(CC(C)(C)CC2=O)N1 (stereo not drawn) | 1 |  |
| COc1ccc(C2C(C(=O)NCCc3c[nH]c4ccccc34)=C(C)NC3=C2C(=O)CC(C)(C)C3)cc1OC (stereo not drawn) | 1.3 |  |
| CC1=C(C(=O)NCCc2c[nH]c3ccccc23)C(c2ccsc2)C2=C(CCCC2=O)N1 (stereo not drawn) | 1.64 |  |
| CC1=C(C(=O)NCCc2c[nH]c3ccccc23)C(c2ccc(C(F)(F)F)cc2)C2=C(CC(C)(C)CC2=O)N1 (stereo not drawn) | 1.58 |  |
| O=C(NC(Cc1c[nH]c2ccccc12)C(=O)O)c1cccc(Cl)c1 (stereo not drawn) |  | inhibition [3]: 49% |
| CC1=C(C(=O)NCCc2c[nH]c3ccccc23)C(c2cccc([N+](=O)[O-])c2)C2=C(CC(C)(C)CC2=O)N1 (stereo not drawn) | 1.86 | Activity [2]: Dose-Dependent Effect |
| CC1=C(C(=O)NCCc2c[nH]c3ccccc23)C(c2ccc(Cl)cc2)C2=C(CC(C)(C)CC2=O)N1 (stereo not drawn) | 1.49 |  |
| CC1=C(C(=O)NCCc2c[nH]c3ccccc23)C(c2ccco2)C2=C(CCCC2=O)N1 (stereo not drawn) | 1.62 |  |
| CC1=C(C(=O)NCCc2c[nH]c3ccccc23)C(c2ccco2)C2=C(CC(C)(C)CC2=O)N1 (stereo not drawn) | 2.01 | Activity [2]: Dose-Dependent Effect |
| CC1=C(C(=O)NCCc2c[nH]c3ccccc23)C(c2ccc(F)cc2)C2=C(CCCC2=O)N1 (stereo not drawn) | 1.54 |  |
| CSc1ccc(C2C(C(=O)NCCc3c[nH]c4ccccc34)=C(C)NC3=C2C(=O)CC(C)(C)C3)cc1 (stereo not drawn) | 1.33 |  |
| COc1cc(C2C(C(=O)NCCc3c[nH]c4ccccc34)=C(C)NC3=C2C(=O)CCC3)cc(OC)c1OC (stereo not drawn) | 1.79 | Activity [2]: Dose-Dependent Effect |
| CN(C)C(=N)NC(=N)N |  | fold change (FC) [4]: 1.86 |
| CC1=C(C(=O)NCCc2c[nH]c3ccccc23)C(c2c(Cl)cccc2Cl)C2=C(CC(C)(C)CC2=O)N1 (stereo not drawn) | 0.82 |  |

| Compound | fold change (FC) [1] | also measured |
| --- | --- | --- |
| CC1=C(C(=O)NCCc2c[nH]c3ccccc23)C(c2ccc(Cl)c(Cl)c2)C2=C(CC(C)(C)CC2=O)N1 (stereo not drawn) | 2.96 | Cmax [5]: 51.7 ng/mL; Activity [6]: Active; remaining at 2 h [7]: 90.8%; Activity [8]: inactive; Vd(app) [9]: 5281.28 L/kg; Tmax [10]: 0.42 h; half-life [11]: 14.3 h; Activity [12]: Active; remaining at 2 h [13]: 91.1%; AUC at 48 h [14]: 367 ng·h/mL; remaining at 2 h [15]: 96.2%; MRT [16]: 20.8 h; remaining at 2 h [17]: 90.2%; Activity [18]: inactive; CL/F [19]: 254 L/h/kg; Activity [2]: Dose-Dependent Effect; Activity (L6-GLUT4myc): Active; Activity (Rattus norvegicus): Active |
| CC1=C(C(=O)NCCc2c[nH]c3ccccc23)C(c2ccc(F)cc2)C2=C(CC(C)(C)CC2=O)N1 (stereo not drawn) | 1 |  |
| CCNC(=O)C1=C(C)NC2=C(C(=O)CC(C)(C)C2)C1c1ccc(Cl)c(Cl)c1 (stereo not drawn) | 1.16 |  |
| CCOC(=O)C1=C(C)NC2=C(C(=O)CC(C)(C)C2)C1c1ccc(Cl)c(Cl)c1 (stereo not drawn) | 1.92 |  |
| CC1=C(C(=O)NCCc2c[nH]c3ccccc23)C(c2cccc([N+](=O)[O-])c2)C2=C(CCCC2=O)N1 (stereo not drawn) | 1.71 |  |
| CC1=C(C(=O)NCCc2c[nH]c3ccccc23)C(c2ccc(O)c(O)c2)C2=C(CC(C)(C)CC2=O)N1 (stereo not drawn) | 0.99 |  |
| CC1=C(C(=O)NCCc2c[nH]c3ccccc23)C(c2ccsc2)C2=C(CC(C)(C)CC2=O)N1 (stereo not drawn) | 1.87 | Activity [2]: Dose-Dependent Effect |
| COc1ccc(C2C(C(=O)NCCc3c[nH]c4ccccc34)=C(C)NC3=C2C(=O)CC(C)(C)C3)cc1 (stereo not drawn) | 1.39 |  |
| Cc1nc2c(c(-c3ccc(Cl)c(Cl)c3)c1C(=O)NCCc1c[nH]c3ccccc13)C(=O)CC(C)(C)C2 | 1.42 |  |
| CC1=C(C(=O)NCCc2c[nH]c3ccccc23)C(c2cccs2)C2=C(CC(C)(C)CC2=O)N1 (stereo not drawn) | 1.09 |  |
| COc1ccc2[nH]cc(CCNC(=O)C3=C(C)NC4=C(C(=O)CC(C)(C)C4)C3c3ccc(Cl)c(Cl)c3)c2c1 (stereo not drawn) | 1.37 |  |
| CC1=C(C(=O)NCCc2c[nH]c3ccccc23)C(c2ccc([N+](=O)[O-])cc2)C2=C(CC(C)(C)CC2=O)N1 (stereo not drawn) | 1.72 |  |
| CC1=C(C(=O)NCCc2c[nH]c3ccccc23)C(c2cccc(Cl)c2Cl)C2=C(CC(C)(C)CC2=O)N1 (stereo not drawn) | 1.52 |  |
| CC1=C(C(=O)NCCc2c(C)[nH]c3ccccc23)C(c2ccc(Cl)c(Cl)c2)C2=C(CC(C)(C)CC2=O)N1 (stereo not drawn) | 1.42 |  |
| COc1ccc(C2C(C(=O)NCCc3c[nH]c4ccccc34)=C(C)NC3=C2C(=O)CCC3)cc1OC (stereo not drawn) | 1.48 |  |
| CC1=C(C(=O)NCCc2c[nH]c3ccccc23)C(c2ccc(C#N)cc2)C2=C(CC(C)(C)CC2=O)N1 (stereo not drawn) | 0.96 |  |
| COc1cc(C2C(C(=O)NCCc3c[nH]c4ccccc34)=C(C)NC3=C2C(=O)CC(C)(C)C3)cc(OC)c1OC (stereo not drawn) | 1.21 |  |
